# In ChEMBL document CHEMBL1146972, “Specific inhibitors of Plasmodium falciparum thioredoxin reductase as potential antimalarial agents” (Bioorg Med Chem Lett, 2006):
# pIC50, pKi: −log10 of the molar value.
# Columns and labels:
# Thioredoxin reductase [1] = target: Thioredoxin reductase (Homo sapiens, UniProt Q16881+Q9NNW7+Q86VQ6); experiment: Inhibition of human TrxR; format: protein assay
# [2] = target: T1, Thioredoxin reductase (Plasmodium falciparum 3D7) (UniProt P61076); experiment: Inhibition of Plasmodium falciparum TrxR at 100 uM
# T1 sequence (whole entry): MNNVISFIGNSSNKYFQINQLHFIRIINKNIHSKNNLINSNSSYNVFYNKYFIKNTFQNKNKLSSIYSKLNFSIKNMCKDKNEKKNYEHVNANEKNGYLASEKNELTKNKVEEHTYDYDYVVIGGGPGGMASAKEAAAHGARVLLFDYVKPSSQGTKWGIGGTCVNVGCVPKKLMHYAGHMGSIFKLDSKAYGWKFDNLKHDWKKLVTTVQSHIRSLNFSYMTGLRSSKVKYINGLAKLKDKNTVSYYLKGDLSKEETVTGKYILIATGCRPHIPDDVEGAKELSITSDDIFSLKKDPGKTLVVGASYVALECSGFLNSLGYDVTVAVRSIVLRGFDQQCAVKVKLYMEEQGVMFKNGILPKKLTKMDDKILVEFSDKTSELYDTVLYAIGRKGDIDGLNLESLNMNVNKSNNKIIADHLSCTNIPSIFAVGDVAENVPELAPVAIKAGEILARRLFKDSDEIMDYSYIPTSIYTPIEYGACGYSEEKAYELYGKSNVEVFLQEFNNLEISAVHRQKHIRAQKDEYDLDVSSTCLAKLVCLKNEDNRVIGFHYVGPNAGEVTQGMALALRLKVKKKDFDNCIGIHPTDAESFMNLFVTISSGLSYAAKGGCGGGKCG
# Thioredoxin reductase [3] = target: T2, Thioredoxin reductase (Plasmodium falciparum 3D7, UniProt P61076); experiment: Inhibition of Plasmodium falciparum TrxR
# T2 sequence (P61076 whole entry): T1 sequence (whole entry)
# [4] = target: T1, Thioredoxin reductase (Plasmodium falciparum 3D7); conditions: 2 uM
# Plasmodium falciparum [5] = experiment: Growth inhibition against Plasmodium falciparum K1; format: functional, organism-based
# [6] = target: T1, Thioredoxin reductase (Plasmodium falciparum 3D7); conditions: 2 uM; remark: listed apart in the source
# [7] = target: T1, Thioredoxin reductase (Plasmodium falciparum 3D7); conditions: 100 uM
# [8] = target: T3, Glutathione reductase, mitochondrial (Homo sapiens) (UniProt P00390); experiment: Inhibition of human GR at 2 uM
# T3 sequence (whole entry): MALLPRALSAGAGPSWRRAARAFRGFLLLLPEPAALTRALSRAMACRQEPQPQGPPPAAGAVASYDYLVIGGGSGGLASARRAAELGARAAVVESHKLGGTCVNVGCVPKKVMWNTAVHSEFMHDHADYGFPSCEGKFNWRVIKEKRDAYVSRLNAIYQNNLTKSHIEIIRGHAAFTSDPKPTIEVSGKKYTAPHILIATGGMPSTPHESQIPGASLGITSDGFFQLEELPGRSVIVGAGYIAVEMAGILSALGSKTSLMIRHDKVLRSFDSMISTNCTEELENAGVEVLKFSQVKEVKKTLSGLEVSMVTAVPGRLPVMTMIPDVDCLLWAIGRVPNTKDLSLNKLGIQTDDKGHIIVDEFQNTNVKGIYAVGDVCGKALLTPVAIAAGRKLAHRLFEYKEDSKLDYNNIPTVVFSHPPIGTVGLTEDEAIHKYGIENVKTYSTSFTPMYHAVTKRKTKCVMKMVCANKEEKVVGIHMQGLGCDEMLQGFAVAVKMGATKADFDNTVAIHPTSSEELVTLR
# [9] = target: Glutathione reductase (Plasmodium falciparum 3D7) (UniProt O15770); experiment: Inhibition of Plasmodium falciparum GR at 2 uM
# Thioredoxin reductase [10] = target: T2, Thioredoxin reductase; experiment: Binding affinity to Plasmodium falciparum TrxR in presence of thioredoxin
# Thioredoxin reductase [11] = target: T2, Thioredoxin reductase; experiment: Binding affinity to Plasmodium falciparum TrxR in presence of NADPH
# Plasmodium falciparum [12] = experiment: Inhibition of Plasmodium falciparum K1 as [3H]hypoxanthine uptake; format: functional, organism-based
# Sequence of Glutathione reductase (Plasmodium falciparum 3D7) (O15770 whole entry): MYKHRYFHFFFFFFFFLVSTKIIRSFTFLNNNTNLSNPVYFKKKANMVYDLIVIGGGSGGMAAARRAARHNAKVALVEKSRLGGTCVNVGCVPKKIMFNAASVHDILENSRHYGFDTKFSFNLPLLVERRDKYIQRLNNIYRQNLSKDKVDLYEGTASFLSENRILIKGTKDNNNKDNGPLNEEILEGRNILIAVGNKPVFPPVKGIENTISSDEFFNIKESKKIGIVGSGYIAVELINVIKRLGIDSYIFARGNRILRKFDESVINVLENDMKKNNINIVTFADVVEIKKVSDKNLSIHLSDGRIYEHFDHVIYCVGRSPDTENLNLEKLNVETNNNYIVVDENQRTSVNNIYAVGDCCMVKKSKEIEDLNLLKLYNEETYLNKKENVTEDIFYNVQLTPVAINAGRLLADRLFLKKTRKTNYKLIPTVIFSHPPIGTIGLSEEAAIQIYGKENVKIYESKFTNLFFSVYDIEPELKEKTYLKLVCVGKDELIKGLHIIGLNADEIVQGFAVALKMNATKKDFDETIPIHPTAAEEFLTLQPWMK
SMILES,IC50 (Thioredoxin reductase [1]),pIC50 (Thioredoxin reductase [3]),other results
O=[N+]([O-])c1ccc2c(c1)OCO2,> 200 µM,,inhibition [2]: < 10%
O=[N+]([O-])c1ccc2nccnc2c1,> 200 µM,4.40,
O=[N+]([O-])c1cc(C(F)(F)F)ccc1Sc1ccc(C(F)(F)F)cc1[N+](=O)[O-],> 150 µM,4.70,
O=[N+]([O-])c1cc2nccnc2cc1[N+](=O)[O-],140 µM,5.70,inhibition [4]: 15%; pIC50 (Plasmodium falciparum [5]): 4.82; inhibition [6]: 70%; inhibition [7]: 15%; inhibition [8]: 27%; inhibition [9]: 39%
O=[N+]([O-])c1ccc2c(c1[N+](=O)[O-])OCO2,80 µM,5.00,
O=[N+]([O-])c1cccc2nsnc12,50 µM,5.70,pKi (Thioredoxin reductase [10]): 6.19; pIC50 (Plasmodium falciparum [5]): 4.96; inhibition [8]: 81%; inhibition [9]: 69%; pKi (Thioredoxin reductase [11]): 6.00; pIC50 (Plasmodium falciparum [12]): 5.54
O=[N+]([O-])c1cc(C(F)(F)F)cc([N+](=O)[O-])c1Cl [CHLORALIN],100 µM,5.10,
O=[N+]([O-])c1cc([N+](=O)[O-])cc(C(F)(F)F)c1,> 200 µM,4.52,
O=[N+]([O-])c1ccc2nsnc2c1,90 µM,5.00,
